Reference: ChEMBL document CHEMBL3430912, “GSK Tres Cantos Anti-Kinetoplastid Screening (TCAKS) Data”

What was measured:
[1] = GSK_TCAKS: pIC50 HepG2 human cell line viability assay using luminiscence. […] Seeding density was checked to ensure that new mono-layers were not more than 50% confluent at the time of harvesting. Cell suspension was added to 500 mL of the same medium at a final density of 1.2 * 10^5 cells/mL. This cell suspension was dispensed (25 uL, 3000 cells per well) into 384-well clear-bottom plates using a Multidrop Combi dispenser. Prior to addition of the cell suspension, the screening compounds (250 nL) were pre-dispensed into the plates with an Echo liquid handler. Plates were incubated for 48 h at 37C, 5% CO2. After incubation, plates equilibrated at room temperature for 30 min before proceeding to develop the luminescent signal. The signal developer, CellTiter-Glo Reagent, was allowed to equilibrate at room temperature for 30 min and added to the plates (25uL per well) using a Multidrop Combi dispenser. Plates were left for 10 min at room temperature for stabilization and then read using a ViewLux.; type: toxicity, cell-based
[2] = system: Trypanosoma cruzi; assay: (§1) GSK_TCAKS: pIC50 Trypanosoma cruzi Imaging: Infected Cells. […] Cells were then washed once with PBS before infection. T. cruzi trypomastigotes, collected at days 5 to 8 after infection from LLC-MK2 parasite infected cultures, were allowed to swim out for 4h at 37C from a centrifuged pellet (2,500 rpm/10 min/room temperature). Trypomastigotes were then collected and counted in a CASY Cell Counter. Trypomastigotes, in supplemented DMEM, were added to H9c2 cultures in a multiplicity of infection of 1 and incubated for 18 h. Cells were washed once with PBS before incubation of the infected H9c2 monolayer with trypsin (Life-Technologies) to detach cells from the flask. Cells were counted in a CASY Cell Counter using a 150 um capillary and their density set at 5 * 10^4 cells per mL in supplemented assay DMEM. Infected H9c2 were dispensed into 384-well poly-lysine coated assay plates at 50uL per well using a Multidrop Combi dispenser. After seeding them, the plates were incubated at 37C, 5% CO2 for 72h. Cultures were then fixed and stained by addition of 50 uL of a solution containing 8% formaldehyde and 4 uM DRAQ5 DNA dye (BioStatus, UK) per well. […] Five images were collected per well for reliable statistical analysis. Automated image analysis was performed with a script developed on Acapella High Content Imaging and Analysis Software (PerkinElmer). Output: percentage of infected cells per well as a second infection marker.; type: functional, organism-based, Rattus norvegicus; conditions: H9c2, 4 h
[3] = system: Trypanosoma brucei brucei; assay: GSK_TCAKS: pIC50 Trypanosoma brucei viability assay using luminiscence. Assay plates (1536-well) were prepared. T. brucei cultures were harvested and counted in a CASY cell counter. A parasite suspension was prepared at a final concentration of 5 * 10^4 cells/mL in complete HMI9 medium and 6uL was dispensed to all wells containing compounds using a Multidrop Combi dispenser. 6uL of HMI9 media with 0.4% DMSO were dispensed to control columns. Plates were incubated for 24 h at 37C, 5% CO2 then tempered for 10 min at room temperature. ATP content was quantified by adding 4 uL of CellTiter-Glo Reagent (Promega) according to the manufacturer's instructions. Luminescence was measured using a ViewLux.; type: functional, organism-based; conditions: Lister 427, CASY
[4] = system: Trypanosoma cruzi; assay: as §1, with “H2C9” for “Trypanosoma cruzi”, “H9c2 Host Cardiomyocytes.” for “Infected Cells.”, “Number” for “percentage”, “H9c2 Host Cardiomyocytes nuclei to determine drug-related cytotoxicity.” for “infected cells per well as a second infection marker.”; type: functional, organism-based, Rattus norvegicus; conditions: H9c2, 4 h
[5] = biological target: Sterol 14-alpha demethylase (Trypanosoma cruzi (strain CL Brener), UniProt Q7Z1V1); assay: GSK_TCAKS: pIC50 CYP51 from Trypanosoma cruzi.; type: functional
[6] = system: Leishmania donovani; assay: (§2) GSK_TCAKS: pIC50 Leishmania donovani Imaging: THP-1 Host Macrophages. Assay plates (384-well) were prepared by adding 250nL of compound to each well. For single shot assay, the final compound concentration was 5 uM. […] Automated image analysis was performed with a script developed on Acapella High Content Imaging and Analysis Software (PerkinElmer). Output: THP-1 cell count were reported for each well.; type: functional, organism-based, Homo sapiens
[7] = system: Trypanosoma cruzi; assay: GSK_TCAKS: pIC50 Trypanosoma cruzi Imaging: Amastigotes/Cell. […] Cells were then washed once with PBS before infection. T. cruzi trypomastigotes, collected at days 5 to 8 after infection from LLC-MK2 parasite infected cultures, were allowed to swim out for 4h at 37C from a centrifuged pellet (2,500 rpm/10 min/room temperature). Trypomastigotes were then collected and counted in a CASY Cell Counter. Trypomastigotes, in supplemented DMEM, were added to H9c2 cultures in a multiplicity of infection of 1 and incubated for 18 h. Cells were washed once with PBS before incubation of the infected H9c2 monolayer with trypsin (Life-Technologies) to detach cells from the flask. Cells were counted in a CASY Cell Counter using a 150 um capillary and their density set at 5 * 10^4 cells per mL in supplemented assay DMEM. Infected H9c2 were dispensed into 384-well poly-lysine coated assay plates at 50uL per well using a Multidrop Combi dispenser. After seeding them, the plates were incubated at 37C, 5% CO2 for 72h. Cultures were then fixed and stained by addition of 50 uL of a solution containing 8% formaldehyde and 4 uM DRAQ5 DNA dye (BioStatus, UK) per well. […] Five images were collected per well for reliable statistical analysis. Automated image analysis was performed with a script developed on Acapella High Content Imaging and Analysis Software (PerkinElmer). Output: number of amastigotes per cell as infection level measurement.; type: functional, organism-based, Rattus norvegicus; conditions: H9c2, 4 h
[8] = system: Trypanosoma cruzi; assay: GSK_TCAKS: pIC50 Trypanosoma cruzi viability assay using beta-GAL activity. This assay was run at single shot at 5uM compound concentration per well. The biological reagents consisted of NIH-3T3 host cells and trypomastigotes parasitic cells; both cell types were set to a 3.3 * 10^5 cells/mL dilution in assay DMEM by means of a CASY cell counter device using a 60um capillary. 6 uL of the mixture were dispensed per well (about 1 * 10^3 host-cells and 1 * 10^3 parasites) with a Multidrop Combi dispenser. […] In all wells, the percentage of DMSO never exceeded 0.5%. Plates incubated for four days at 37C, 5% CO2. The substrate used for the assay fluorescence intensity (FLINT) readout was resorufin-beta-D-galactopiranoside (Sigma-Aldrich) at 5uM per well. It was diluted in PBS supplemented with the soft detergent Igepal (Fluka).; type: functional, organism-based, Mus musculus; conditions: Tulahuen, NIH3T3
[9] = system: Trypanosoma brucei brucei; assay: GSK_TCAKS: pIC50 Trypanosoma brucei viability assay using fluorescence intensity. Assay plates (1536-well) were prepared by dispensing 25nL of compound solution per well using an Echo acoustic dispenser (Labcyte).; type: functional, organism-based; conditions: Lister 427, 2 h
[10] = system: Leishmania donovani; assay: as §2, with “Amastigotes/Macrophages.” for “THP-1 Host Macrophages.”, “Average number of amastigotes per macrophage” for “THP-1”, “cell” for “cell count”; type: functional, organism-based, Homo sapiens; conditions: THP-1
[11] = system: Leishmania donovani; assay: GSK_TCAKS: pIC50 Leishmania donovani viability assay using fluorescence intensity. Assay plates (1536-well) were prepared by adding 30nL per well of compound. For single shot assay, the final compound concentration was 5uM. […] Briefly, eGFP LdBOB axenic amastigotes were harvested, fixed and counted in a CASY cell counter (Roche-Applied Science). A final concentration of 1.5 * 10^5 cells per well were prepared in amastigote media containing 500 U/mL penicillin/streptomycin (Invitrogen) and 6uL was dispensed to each experimental well using a Multidrop Combi dispenser (Thermo Scientific). 6uL of assay media was dispensed to control columns used as reference for 100% compound response. Following incubation for 72 h at 37C, 5% CO2, 2 uL of resazurin was added to each well at a final concentration of 0.5 mM in phosphate buffered saline (PBS) with IGEPAL (Sigma-Aldrich), 0.05% (v/v).; type: functional, organism-based
[12] = system: Leishmania donovani; assay: as §2, with “Infected” for “THP-1 Host”, “Percent of infected macrophage cells” for “THP-1 cell count”; type: functional, organism-based, Homo sapiens; conditions: THP-1

Chain of Sterol 14-alpha demethylase (Q7Z1V1 whole entry): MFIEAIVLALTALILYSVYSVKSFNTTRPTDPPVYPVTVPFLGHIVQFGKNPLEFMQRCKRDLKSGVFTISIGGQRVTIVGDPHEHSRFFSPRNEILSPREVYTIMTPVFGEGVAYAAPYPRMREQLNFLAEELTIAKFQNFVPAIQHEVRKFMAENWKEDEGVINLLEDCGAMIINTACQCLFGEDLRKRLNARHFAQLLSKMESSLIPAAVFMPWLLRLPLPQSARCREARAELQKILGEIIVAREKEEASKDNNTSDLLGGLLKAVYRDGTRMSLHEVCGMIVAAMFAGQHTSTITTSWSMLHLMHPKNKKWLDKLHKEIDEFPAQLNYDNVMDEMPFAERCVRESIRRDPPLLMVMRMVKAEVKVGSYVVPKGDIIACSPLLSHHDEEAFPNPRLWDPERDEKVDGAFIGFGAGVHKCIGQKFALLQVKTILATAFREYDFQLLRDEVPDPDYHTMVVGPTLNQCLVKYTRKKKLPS

| Structure (SMILES) | IC50 at 48 h [1] | IC50 [2] | IC50 [3] | IC50 [4] | IC50 [5] | IC50 [6] | IC50 [7] | IC50 [8] | IC50 [9] | IC50 [10] | IC50 [11] | IC50 [12] |
| --- | --- | --- | --- | --- | --- | --- | --- | --- | --- | --- | --- | --- |
| N#Cc1cccc(Cc2cc(Nc3cc(C4CC4)[nH]n3)nc(N3CC[C@H]3C(N)=O)n2)c1 | > 100 µM | 3.98 µM | 0.0631 µM | 0.00398 µM | 50.1 µM | 0.0316 µM | 1 µM | 0.398 µM | 0.0398 µM | 0.0794 µM | 0.631 µM | 0.2 µM |
| COc1ccc(C(=O)Nc2c(C)nn(COc3cccc(C(F)(F)F)c3)c2C)cc1 | > 100 µM | 39.8 µM | 0.794 µM | > 50.1 µM | 12.6 µM | 31.6 µM | 25.1 µM | 25.1 µM | 0.794 µM | > 50.1 µM | > 50.1 µM | > 50.1 µM |
| Cc1cc2nc(N3CC[C@H]3C(N)=O)nc(Nc3cc(C4CC4)[nH]n3)c2s1 | > 100 µM | 7.94 µM | 0.126 µM | 0.501 µM | > 100 µM | 0.794 µM | 3.98 µM | 6.31 µM | 0.0794 µM | 1.26 µM | 0.794 µM | 2 µM |
| COc1ccc(-c2cc(C)no2)cc1S(=O)(=O)Nc1ccc(C)c(C)c1 | > 100 µM | 7.94 µM | 20 µM | 15.8 µM | 15.8 µM | > 50.1 µM | 5.01 µM | 5.01 µM | 20 µM | 2 µM | 7.94 µM | 2.51 µM |
| COc1ccc(-c2cnc(C)o2)cc1S(=O)(=O)Nc1ccc(C)cc1C | > 100 µM | 3.16 µM | 31.6 µM | > 50.1 µM | 25.1 µM | > 50.1 µM | 3.16 µM | 2.82 µM | 6.31 µM | 2.51 µM | 3.98 µM | 3.16 µM |
| CNc1nc(C)nc(N2CCc3cc(C(=O)NCc4ccc(-c5cc[nH]n5)cc4Cl)ccc32)n1 | > 100 µM | > 50.1 µM | 10 µM | 20 µM | 5.01 µM | > 50.1 µM | > 50.1 µM | > 50.1 µM | 12.6 µM | 0.398 µM | 2.51 µM | 0.316 µM |
| O=C(c1cccc(Nc2ncc(-c3ccc4c(c3)OCO4)cn2)c1)N1CCOCC1 | > 126 µM | 1.26 µM | > 50.1 µM | 6.31 µM | 20 µM | > 63.1 µM | 0.794 µM | 6.31 µM | 25.1 µM | 1.58 µM | 2 µM | 3.98 µM |
| O=C1CN(C(=O)c2cccc(Nc3ncc(-c4ccc5c(c4)OCO5)cn3)c2)CCN1 | > 126 µM | 0.794 µM | > 50.1 µM | > 63.1 µM | 25.1 µM | > 63.1 µM | 0.501 µM | 1.58 µM | > 50.1 µM | 2 µM | 1.58 µM | 5.01 µM |
